Data: PMC5747257 (Bioorganic & medicinal chemistry letters, 2017)
Blank lines part the entries; values can stand above or below the compound they belong to.

Columns and labels:
[1] = tested on: Class I HDAC (HDAC1, 2, and 3) (substrate acetyl-histone 3, AcH3); test: In cellulo selectivity, western blot of acetyl-histone H3 in U937 cells; type: cell-based; conditions: SAHA 5 µM, 1e 10–40 µM, compared to DMSO control
[2] = tested on: HDAC6 (substrate acetyl-α-tubulin, AcTub); test: In cellulo selectivity, western blot of acetyl-α-tubulin in U937 cells; type: cell-based; conditions: SAHA 5 µM, 1e 10–40 µM, compared to DMSO control
HDAC isoforms = conditions: cited from earlier work; for isoform selectivity: prior work
[3] = tested on: HeLa cell lysates as the source of all HDAC proteins; test: Global HDAC inhibition with HeLa cell lysates; type: biochemical; conditions: mean and standard error of at least three independent trials
HDAC6 = biological target: T1, HDAC6 (Homo sapiens, UniProt Q9UBN7); test: ELISA-based HDAC activity assay, HDAC6; type: biochemical; conditions: from IC50 values (Tables 2 and S6)
T1 sequence (Q9UBN7 1-1215): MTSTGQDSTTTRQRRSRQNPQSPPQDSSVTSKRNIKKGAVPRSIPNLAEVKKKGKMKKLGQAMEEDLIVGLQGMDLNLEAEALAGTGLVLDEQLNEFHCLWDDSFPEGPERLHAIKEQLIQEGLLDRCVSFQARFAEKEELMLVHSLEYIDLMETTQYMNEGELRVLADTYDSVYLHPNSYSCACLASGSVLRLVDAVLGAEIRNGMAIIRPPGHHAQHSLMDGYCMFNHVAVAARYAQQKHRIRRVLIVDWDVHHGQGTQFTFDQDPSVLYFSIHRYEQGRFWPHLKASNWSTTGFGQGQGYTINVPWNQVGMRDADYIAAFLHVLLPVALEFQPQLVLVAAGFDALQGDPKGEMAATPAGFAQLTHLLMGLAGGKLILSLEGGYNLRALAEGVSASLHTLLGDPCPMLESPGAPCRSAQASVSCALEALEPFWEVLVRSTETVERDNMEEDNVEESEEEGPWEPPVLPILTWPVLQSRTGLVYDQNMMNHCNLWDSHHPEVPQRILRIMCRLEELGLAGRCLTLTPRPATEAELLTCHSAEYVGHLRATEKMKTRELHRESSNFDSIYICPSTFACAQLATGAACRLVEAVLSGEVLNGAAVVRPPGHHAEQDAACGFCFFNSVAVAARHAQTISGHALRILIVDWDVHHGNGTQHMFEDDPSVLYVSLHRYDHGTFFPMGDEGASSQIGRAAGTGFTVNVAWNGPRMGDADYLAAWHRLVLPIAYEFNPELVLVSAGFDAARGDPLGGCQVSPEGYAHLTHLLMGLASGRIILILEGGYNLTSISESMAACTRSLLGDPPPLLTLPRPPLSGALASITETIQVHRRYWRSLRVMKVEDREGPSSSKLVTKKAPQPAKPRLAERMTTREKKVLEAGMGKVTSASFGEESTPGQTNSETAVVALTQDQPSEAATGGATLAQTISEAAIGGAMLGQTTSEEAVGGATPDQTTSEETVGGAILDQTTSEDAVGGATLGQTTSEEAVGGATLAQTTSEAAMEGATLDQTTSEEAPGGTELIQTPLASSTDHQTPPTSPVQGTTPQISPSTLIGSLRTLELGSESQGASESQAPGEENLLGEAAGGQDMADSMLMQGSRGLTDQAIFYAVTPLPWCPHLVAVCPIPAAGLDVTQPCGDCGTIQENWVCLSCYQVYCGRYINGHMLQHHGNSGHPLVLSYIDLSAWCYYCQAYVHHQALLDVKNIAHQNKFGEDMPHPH

Structure (SMILES): O=C(CCCC(CCC(=O)Nc1ccccc1)Cc1ccccc1)NO (stereo not shown) [Compound 1e, C5-benzyl SAHA]
levels of acetyl-histone H3 (AcH3) [1]: increased levels | levels of acetyl-α-tubulin (AcTub) [2]: dose dependent selective increase

Structure (SMILES): CCC(CCCCC(=O)Nc1ccccc1)CC(=O)NO (stereo not shown) [C3-ethyl SAHA]
isoform selectivity (HDAC isoforms): HDAC6 selectivity

IC50 [3]: 100 ± 10 nM
Structure (SMILES): CC(CCCC(=O)NO)CCC(=O)Nc1ccccc1 (stereo not shown) [Compound 1a, C5-methyl SAHA]

selectivity for HDAC6 and HDAC8 over HDAC1, 2, and 3 (HDAC6): 3- to 5 fold
Structure (SMILES): CCCCC(CCCC(=O)NO)CCC(=O)Nc1ccccc1 (stereo not shown) [Compound 1b, C5-n-butyl SAHA]

selectivity for HDAC6 and HDAC8 over HDAC1, 2, and 3 (HDAC6): 5- to 7 fold
Structure (SMILES): CCCCCCC(CCCC(=O)NO)CCC(=O)Nc1ccccc1 (stereo not shown) [Compound 1c, C5-n-hexyl SAHA]

Structure (SMILES): CCCCCCC(CCCCCC(=O)Nc1ccccc1)C(=O)NO (stereo not shown) [C2-hexyl SAHA]
selectivity for HDAC6 and 8 over HDAC1, 2, and 3 (HDAC isoforms; previously reported): 49- to 300 fold | isoform selectivity (HDAC isoforms): dual HDAC6/8 selectivity | IC50 (HDAC isoforms; read-out: IC50 values against HDAC6 and 8, previously reported): 600 to 2000 nM

Structure (SMILES): CCCCC(CCCCC(=O)NO)CC(=O)Nc1ccccc1 (stereo not shown) [C6-butyl SAHA]
isoform selectivity (HDAC isoforms): inhibited HDAC1 and 6 over HDAC3
